Reference: patent publication US20030152523A1, “Pharmaceutical composition for pulmonary delivery” (priority 2000, published 2003)

Legend:
[1] = In-vitro deposition of BDP from dry powder formulations aerosolised via Rotahaler into a twin stage impinger (TSI); assay type: physicochemical; conditions: TSI at 60 L/min, drug in lower stage of TSI
Text: It was the aim of the current study to attempt to reduce the hydrophobic interaction that exists between BDP particles. Such interaction induces aggregate formation and potentially limits the fine particle dose available for pulmonary delivery. The objectives were to adsorb hydrophilic polymer to individual drug particles and to prepare a model dry powder formulation containing modified drug and lactose. A suspension of 1% w/v BDP in water containing either 0.05% or 0.1% PVA ((MWt 9-10 kDA) was spray dried to produce particles (volume mean diameter (VMD) 4.2 μm as determined by an Aerosizer time of flight particle sizing apparatus obtained from Amherst Process Instruments, Hadley, Mass., USA) suitable for intended delivery to the lung. The micronised drug (VMD […]) or spray dried drug was blended with lactose in a ratio 1:67.5 parts by weight and the resultant formulations filled into gelatin capsules for arosolisation via a Rotahaler device to a twin stage impinger (TSI) operated at 60 L min^−1. The Fine Particle Dose (FPD) (as determined from by the amount of drug reaching the lower stage of the TSI) was increased from 20.2 μg when micronised drug was employed to 46.7 μg when the lower PVA concentration was employed. […] The concentration of BDP was determined from calibration curves constructed using the standard solutions of BDP. […]

[2] = Particle size analysis by laser diffraction (Malvern 2600); assay type: physicochemical; conditions: BDP dispersed in 1% (w/v) span 85 in cyclohexane
Method: 3 Particle Size Analysis:
The particle size of both micronised BDP and spray dried BDP was determined in a liquid medium by laser diffraction, according to an independent model, using a Malvern 2600 laser diffraction sizer (Malvern Instruments, Malvern, Worcs, UK). BDP was measured using a 63 mm lens, after dispersion in a solution of 1% (w/v) span 85 in cyclohexane, saturated with the drug. Each sample was measured in triplicate.

Fine particle dose (FPD) of BDP [1]: 20.2 µg | Volume mean diameter VMD(GSD) [2]: 5.18 (1.00) μm
SMILES: CCC(=O)OCC(=O)[C@@]1(OC(=O)CC)[C@@H](C)C[C@H]2[C@@H]3CCC4=CC(=O)C=C[C@]4(C)[C@@]3(Cl)[C@@H](O)C[C@@]21C [micronised BDP, beclomethasone dipropionate]
